Reference: article PMC7932537, “Quantitative profiling of protease specificity” (PLoS Computational Biology, 2021)

Assays:
MMP-2 = assay: Substrate phage display with NGS: relative probability (RP) of P3-P1' tetramer clusters; assay type: biochemical, human; details: for MMP2 relative probability (RP): MMP2 tetramers from unique substrates, unrounded values; for avg_RP: MMP2 - no binning; for relative probability (RP) of matching tetramer: P3-P1' tetramer matching the MS detected MMP2 cleavage sequence, RP_above_4.5
MMP-9 = assay: as above; assay type: biochemical, human; details: for corresponding MMP9 relative probability (RP): MMP2 tetramers from unique substrates, RP of same tetramer for MMP9
[1] = RP according to MMP2, P3-P1' tetramer of unique physiologic MMP2 substrates from MEROPS
[2] = RP of the P3-P1' tetramer, MMP2 substrate phage display/NGS, tetramers of physiologic MEROPS substrates common to MMP2 and MMP9
[3] = RP according to MMP9, P3-P1' tetramer of unique physiologic MMP9 substrates from MEROPS
[4] = RP of the P3-P1' tetramer, MMP9 substrate phage display/NGS, tetramers of physiologic MEROPS substrates common to MMP2 and MMP9
[5] = MMP2, RP of matching P3-P1' tetramer, common set of MMP2-9 selectome, RP above KL threshold
[6] = RP of matching tetramer, common MMP2-9 selectome
[7] = MMP9, RP of matching P3-P1' tetramer, common set of MMP2-9 selectome
[8] = MMP9, RP of the P3-P1' tetramer matching the MS detected cleavage, RP above 4.7, substrate phage display with NGS
[9] = RP of matching tetramer, common MMP2-9 selectome, RP above KL threshold
[10] = RP of the P3-P1' tetramer cluster contained in the hexamer, 200 nM MMP-2, 2 h, 37°C, two rounds of selection
[11] = MMP9, RP of the P3-P1' tetramer contained in the hexamer substrate (substrate phage display, NGS)
[12] = normalized RP of matching tetramer, unique part of MMP2 selectome

APGL
MMP2 relative probability (RP) (MMP-2): 7.849 | Relative probability (RP) rank (MMP-2; [1]): 5899 | relative probability (RP) (MMP-2; [1]): 7.85 | relative probability (RP) (acc.to MMP2) (MMP-2; [2]): 7.85 | corresponding MMP9 relative probability (RP) (MMP-9): 3.776 | Relative probability (RP) rank (MMP-9; [3]): 6833 | relative probability (RP) (MMP-9; [3]): 3.78 | relative probability (RP) (acc.to MMP9) (MMP-9; [4]): 3.78

PLNV
avg_RP (MMP-2; average relative probability of the P3-P1' tetramer, redundant tetramers have been averaged out): 24.9266 | relative probability (RP) (acc.to MMP2) (MMP-2; [5]): 24.93 | relative probability (RP) of matching tetramer (MMP-2): 24.93 | relative probability (RP) (acc.to MMP2) (MMP-2; [6]): 24.93 | relative probability (RP) (acc.to MMP9) (MMP-9; [7]): 43.38 | relative probability (RP) (MMP-9; [8]): 43.38 | relative probability (RP) (acc.to MMP9) (MMP-9; [9]): 43.38

GPKG
relative probability (RP) (acc.to MMP2) (MMP-2; [2]): 1.49 | relative probability (RP) (acc.to MMP9) (MMP-9; [4]): 2.81

PTNL
relative probability (RP) (acc.to MMP2) (MMP-2; [2]): 31.03 | relative probability (RP) (acc.to MMP9) (MMP-9; [4]): 36.13

GPEGMK
relative probability (RP) (MMP-2; [10]): 19.9209 | relative probability (RP) (MMP-9; [11]): 31.8598

APGF
relative probability (RP) (acc.to MMP2) (MMP-2; [2]): 0.64 | relative probability (RP) (acc.to MMP9) (MMP-9; [4]): 0.56

AKAL
relative probability (RP) (acc.to MMP2) (MMP-2; [5]): 22.96 | relative probability (RP) of matching tetramer (MMP-2): 22.96 | relative probability (RP) (acc.to MMP2) (MMP-2; [6]): 22.96 | relative probability (RP) (acc.to MMP9) (MMP-9; [7]): 37.29 | relative probability (RP) (MMP-9; [8]): 37.29 | relative probability (RP) (acc.to MMP9) (MMP-9; [9]): 37.29

GKPVSM
relative probability (RP) (MMP-2; [10]): 30.0644 | relative probability (RP) (MMP-9; [11]): 41.2029

PGNR
relative probability (RP) (acc.to MMP2) (MMP-2; [2]): 0.12 | relative probability (RP) (acc.to MMP9) (MMP-9; [4]): 0.05

QPLEIR
relative probability (RP) (MMP-2; [10]): 19.9123 | relative probability (RP) (MMP-9; [11]): 43.9826

PVAH
relative probability (RP) (acc.to MMP2) (MMP-2; [6]): 24.82 | relative probability (RP) (MMP-9; [8]): 24.99 | relative probability (RP) (acc.to MMP9) (MMP-9; [9]): 24.99

NRPNNL
relative probability (RP) (MMP-2; [10]): 27.0562 | relative probability (RP) (MMP-9; [11]): 38.7188

SPMAFS
relative probability (RP) (MMP-2; [10]): 29.2698 | relative probability (RP) (MMP-9; [11]): 45.5118

IGNM
relative probability (RP) (acc.to MMP2) (MMP-2; [5]): 29.21 | relative probability (RP) of matching tetramer (MMP-2): 29.21 | relative probability (RP) (acc.to MMP9) (MMP-9; [7]): 9.58

MAGM
MMP2 relative probability (RP) (MMP-2): 21.4504 | Relative probability (RP) rank (MMP-2; [1]): 1484 | relative probability (RP) (MMP-2; [1]): 21.45 | corresponding MMP9 relative probability (RP) (MMP-9): 0.06237

MASQ
MMP2 relative probability (RP) (MMP-2): 16.7049 | Relative probability (RP) rank (MMP-2; [1]): 2583 | relative probability (RP) (MMP-2; [1]): 16.7 | corresponding MMP9 relative probability (RP) (MMP-9): 0

VEPLKF
relative probability (RP) (MMP-2; [10]): 11.7082 | relative probability (RP) (MMP-9; [11]): 27.4837

PVNMTD
relative probability (RP) (MMP-2; [10]): 30.0312 | relative probability (RP) (MMP-9; [11]): 44.4072

PYEWHS
relative probability (RP) (MMP-2; [10]): 1.984 | relative probability (RP) (MMP-9; [11]): 22.8534

LAGL [P3-P1' tetramer cluster]
MMP2 relative probability (RP) (MMP-2): 32.2383 | Relative probability (RP) rank (MMP-2; [1]): 174 | relative probability (RP) (MMP-2; [1]): 32.24 | relative_probability (MMP-2; tetramer clusters unique to the MMP-2 selectome, MMP-2 RP): 32.24 | corresponding MMP9 relative probability (RP) (MMP-9): 1.413

LGVM
MMP2 relative probability (RP) (MMP-2): 4.758 | Relative probability (RP) rank (MMP-2; [1]): 7712 | relative probability (RP) (MMP-2; [1]): 4.76 | relative probability (RP) (acc.to MMP2) (MMP-2; [2]): 4.76 | corresponding MMP9 relative probability (RP) (MMP-9): 1.791 | Relative probability (RP) rank (MMP-9; [3]): 10648 | relative probability (RP) (MMP-9; [3]): 1.79 | relative probability (RP) (acc.to MMP9) (MMP-9; [4]): 1.79

PRAV
avg_RP (MMP-2; average relative probability of the tetramer, redundant tetramers averaged out): 28.3444 | relative probability (RP) (acc.to MMP2) (MMP-2; [5]): 28.34 | relative probability (RP) of matching tetramer (MMP-2): 28.34 | relative probability (RP) (acc.to MMP2) (MMP-2; [6]): 28.34 | relative probability (RP) (acc.to MMP9) (MMP-9; [7]): 40.85 | relative probability (RP) (MMP-9; [8]): 40.85 | relative probability (RP) (acc.to MMP9) (MMP-9; [9]): 40.85

ASDY
relative probability (RP) (acc.to MMP2) (MMP-2; [2]): 0.78 | relative probability (RP) (acc.to MMP9) (MMP-9; [4]): 0.38

VTPR
relative probability (RP) (acc.to MMP2) (MMP-2; [2]): 0.18 | relative probability (RP) (acc.to MMP9) (MMP-9; [4]): 0.46

VAEM
MMP2 relative probability (RP) (MMP-2): 19.6601 | Relative probability (RP) rank (MMP-2; [1]): 1857 | relative probability (RP) (MMP-2; [1]): 19.66 | relative probability (RP) (acc.to MMP2) (MMP-2; [2]): 19.66 | corresponding MMP9 relative probability (RP) (MMP-9): 2.985 | Relative probability (RP) rank (MMP-9; [3]): 7772 | relative probability (RP) (MMP-9; [3]): 2.99 | relative probability (RP) (acc.to MMP9) (MMP-9; [4]): 2.99

AMPM
relative probability (RP) (acc.to MMP2) (MMP-2; [5]): 8.51 | relative probability (RP) of matching tetramer (MMP-2): 8.51 | relative probability (RP) (acc.to MMP2) (MMP-2; [6]): 8.51 | relative probability (RP) (acc.to MMP9) (MMP-9; [7]): 26.95 | relative probability (RP) (MMP-9; [8]): 26.95 | relative probability (RP) (acc.to MMP9) (MMP-9; [9]): 26.95

KSEL
MMP2 relative probability (RP) (MMP-2): 10.4091 | Relative probability (RP) rank (MMP-2; [1]): 4754 | relative probability (RP) (MMP-2; [1]): 10.41 | corresponding MMP9 relative probability (RP) (MMP-9): 0.2037

MNML
relative probability (RP) of matching tetramer (MMP-2): 8.39 | relative probability (RP) (acc.to MMP2) (MMP-2; RP of matching tetramer, unique part of MMP2 selectome, RP above KL threshold): 8.39 | normalized RP - MMP2 (MMP-2; [12]): 0.2297 | relative probability (RP) (acc.to MMP9) (MMP-9; RP of matching tetramer, unique part of MMP2 selectome): 0.4 | normalized RP - MMP9 (MMP-9; [12]): 0.007637

PPGS
relative probability (RP) (acc.to MMP2) (MMP-2; [2]): 0.1 | relative probability (RP) (acc.to MMP9) (MMP-9; [4]): 0.2

ARHYKS
relative probability (RP) (MMP-2; [10]): 10.2998 | relative probability (RP) (MMP-9; [11]): 23.6532

PPGE
relative probability (RP) (acc.to MMP2) (MMP-2; [2]): 0 | relative probability (RP) (acc.to MMP9) (MMP-9; [4]): 0.11
